Data published in the supplement of paper PMC12370961.

Legend:
Assay in all cases: differential drug sensitivity score (dDSS) relative to sarcoma reference cohort mean DSS (DSS units (0-100 scale difference)); higher = more selective sensitivity than reference sarcomas
Conditions in all cases: exposure time: 72 h; concentration range: 10-10000 nM
ES-ZH016 direct = test system: ES-ZH016 direct (Ewing sarcoma cells right after isolation)
Method: (§1)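 Drug response profiling of patient-derived Ewing sarcoma and CIC::DUX4 sarcoma tumoroid models (or cells tested directly after isolation from the tumor, 'direct'). The DSS is the normalised AUC (0-100); dDSS is the sample DSS minus the mean DSS of a 34-sarcoma reference cohort profiled in the same lab.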

ES-ZH007 = test system: ES-ZH007 (patient-derived Ewing sarcoma tumoroid)
Method: as §1

CDS-ZH002 direct = test system: CDS-ZH002 direct (CIC-DUX4 sarcoma cells right after isolation)
Method: as §1

ES-ZH009 = test system: ES-ZH009 (patient-derived Ewing sarcoma tumoroid)
Method: as §1

CDS-ZH003 = test system: CDS-ZH003 (patient-derived CIC-DUX4 sarcoma tumoroid)
Method: as §1

CDS-ZH001 = test system: CDS-ZH001 (patient-derived CIC-DUX4 sarcoma tumoroid)
Method: as §1

ES-ZH002 = test system: ES-ZH002 (patient-derived Ewing sarcoma tumoroid)
Method: as §1

CDS-ZH001-2 = test system: CDS-ZH001-2 (patient-derived CIC-DUX4 sarcoma tumoroid)
Method: as §1

ES-ZH016 = test system: ES-ZH016 (patient-derived Ewing sarcoma tumoroid)
Method: as §1

CDS-ZH002 = test system: CDS-ZH002 (patient-derived CIC-DUX4 sarcoma tumoroid)
Method: as §1

ES-ZH008 = test system: ES-ZH008 (patient-derived Ewing sarcoma tumoroid)
Method: as §1

ES-ZH001 = test system: ES-ZH001 (patient-derived Ewing sarcoma tumoroid)
Method: as §1

ES-ZH004 = test system: ES-ZH004 (patient-derived Ewing sarcoma tumoroid)
Method: as §1

SMILES | differential drug sensitivity score (ES-ZH016 direct) | differential drug sensitivity score (ES-ZH007) | differential drug sensitivity score (CDS-ZH002 direct) | differential drug sensitivity score (ES-ZH009) | differential drug sensitivity score (CDS-ZH003) | differential drug sensitivity score (CDS-ZH001) | differential drug sensitivity score (ES-ZH002) | differential drug sensitivity score (CDS-ZH001-2) | differential drug sensitivity score (ES-ZH016) | differential drug sensitivity score (CDS-ZH002) | differential drug sensitivity score (ES-ZH008) | differential drug sensitivity score (ES-ZH001) | differential drug sensitivity score (ES-ZH004)
O=C1NC(=O)[C@@H](c2cn3c4c(cccc24)CCC3)[C@@H]1c1c[nH]c2ccccc12 [Tivantinib] | 2.2 | 2.7 | -1.2 | 7.7 | -3.8 | 2.5 | 9.4 | -0.2 | 7.4 | -3.1 | -1.9 | 9.4 | 1
O=C(c1ccc(Nc2nccc(-c3cc4ccccc4s3)n2)cc1)N1CCC(N2CCCC2)CC1 [IKK16] | 0.1 | -0.6 | 0.3 | 0.4 | 0.7 | -0.1 | 2.3 | 0 | -4.4 | -4 | 0 | -2.5 | -4.1
CN1CCN(c2ccc3nc(-c4c(N)c5c(F)cccc5[nH]c4=O)[nH]c3c2)CC1 [Dovitinib] | 7.6 | -3.8 | -1.6 | 1.5 | -4 | -2.9 | 6.3 | 1.1 | -3.2 | -4 | 1.7 | 0.4 | -1.9
Nc1ccccc1NC(=O)c1ccc(CNC(=O)OCc2cccnc2)cc1 [Entinostat] | 5.6 | 5.5 | 1.3 | 2.1 | -2.1 | -4.9 | 4.9 | 0.5 | -0.2 | -3 | 5.6 | 0.2 | 7.1
CN(C)C/C=C/C(=O)Nc1cc2c(Nc3ccc(F)c(Cl)c3)ncnc2cc1O[C@H]1CCOC1 [Afatinib] | -2.4 | -4.2 | -4.7 | -3 | -4.9 | -4.6 | -2 | -3.4 | -4.6 | -4.9 | -1.4 | -3.9 | -0.3
Nc1ncc(-c2nc(N3CCOCC3)nc(N3CCOCC3)n2)c(C(F)F)n1 [PQR514] | 5.4 | -1.3 | -2.6 | 7.1 | -0.5 | 3.9 | 15.5 | 7 | 5 | -6.5 | 10.1 | -3.3 | 0.8
COc1cc2nccc(Oc3ccc(NC(=O)C4(C(=O)Nc5ccc(F)cc5)CC4)cc3)c2cc1OC [Cabozantinib] | -2.6 | -1 | -2 | -1.5 | -1.5 | -2.6 | 3.4 | -2.6 | -2.4 | -2.6 | 1.7 | 3.6 | 5.9
CCNC(=O)c1noc(-c2cc(C(C)C)c(O)cc2O)c1-c1ccc(CN2CCOCC2)cc1 [Luminespib] | 8.1 | 3.7 | -3.8 | 6.6 | 2.7 | 4.1 | 10.5 | 2.1 | 2.2 | -9.4 | 7.8 | 3.5 | 1.2
C=CCn1c(=O)c2cnc(Nc3ccc(N4CCN(C)CC4)cc3)nc2n1-c1cccc(C(C)(C)O)n1 [Adavosertib] | 8.1 | 4 | -2.6 | 10.9 | 4.9 | 4.9 | 12 | 5.3 | 2.8 | 3 | 7.6 | 8.1 | 0.2
CCc1c(O)cc(O)c(C(=O)c2ccc(OCCN3CCOCC3)c(OC)c2)c1CC(=O)N(CCOC)CCOC [KW-2478] | 3.2 | 0.6 | -0.4 | 4.4 | -1.3 | -0.4 | 7.3 | 0.4 | 1.4 | -3.8 | 6.1 | 3.5 | 0
Cc1[nH]c2ccccc2c1CCNCc1ccc(/C=C/C(=O)NO)cc1 [Panobinostat] | 7.4 | 6.3 | 2 | 10.3 | -3.6 | -2.7 | 4 | 4.9 | 6.6 | -1.1 | 6.6 | 3.6 | 5.4
CN1CCC(COc2cnc(-c3cccc(Cn4nc(-c5cccc(C#N)c5)ccc4=O)c3)nc2)CC1 [Tepotinib] | -4.5 | -0.6 | 2.3 | 9 | 3.5 | -1.4 | 0.6 | -2.5 | -4.3 | -5.4 | -4.7 | 4.4 | -4.7
COc1cccc2c1C(=O)c1c(O)c3c(c(O)c1C2=O)C[C@@](O)(C(=O)CO)C[C@@H]3O[C@H]1C[C@H](N)[C@H](O)[C@H](C)O1 [Doxorubicin] | 11 | -10.2 | 3.1 | 15.7 | 5 | 3.1 | 20.9 | 10.6 | 12.8 | 4.7 | -0.7 | 6.8 | -3.3
COc1ccc(C2=N[C@@H](c3ccc(Cl)cc3)[C@@H](c3ccc(Cl)cc3)N2C(=O)N2CCNC(=O)C2)c(OC(C)C)c1 [Nutlin-3] | 14 | -4.6 | 1 | -4.4 | 3.6 | -1.8 | 8 | 8.4 | 3.3 | -1.3 | 1.4 | -4.6 | -4.6
CNC(=O)c1cc(Oc2ccc(NC(=O)Nc3ccc(Cl)c(C(F)(F)F)c3)c(F)c2)ccn1 [Regorafenib] | -2 | -2 | -0.6 | -0.4 | 2.7 | -2 | -1.1 | -2 | -2 | -2 | -2 | -2 | 0.8
